Data reported in PMC7751820, “Synthesis, cytotoxic assessment, and molecular docking studies of 2,6-diaryl-substituted pyridine and 3,4- dihydropyrimidine-2(1H)-one scaffolds” (Turkish Journal of Chemistry, 2020).
Values after ≈ are worked out from the molar mass of the structure shown. Read-outs that look alike come from different tables or passages of the source.

Key:
[1] = tested on: HEK293 cells (human embryonic kidney); assay: MTT cytotoxicity assay, HEK293 normal cells; type: cell-based; conditions: for IC50: Homo sapiens, read-out: IC 50 (μg/mL) HEK293; for cytotoxicity against HEK293 cells compared to the other analogs: pyridine derivatives, Figure 6, 24 h
Procedure: (§1) FBS, PBS, trypsin, penicillin, streptomycin, DMSO, 3-[4,5-dimethyl thiazol-2-yl]-2,5-diphenyltetrazoliumbromide (MTT), Triton X-100, and RPMI-1640 medium supplemented with 10% heat inactivated FBS were purchased from Sigma-Aldrich. The AGS, HEK293, and MCF7 cell lines were purchased from the National Cell Bank of Iran, Pasteur Institute of Iran, Tehran, Iran.
(§2) In this research, the effects of synthesized compounds on the viability of MCF-7, AGS, and HEK cells were evaluated at various concentrations (0.39–200 μg/mL) utilizing 3-(4,5-dimethylthiazol-2-yl)-2,5-diphenyltetrazolium bromide (MTT) assay. After thawing, the cells were cultured in RPMI 1640 medium containing 10% FBS, penicillin (100 U/mL), and streptomycin ([…]) at 37 °C in a humidified 5% CO2 incubator. The cells were seeded in a 96-well plate at a density of 5000 cells per well (the cells were stained with trypan blue and counted with a hemocytometer). The cells were incubated overnight at 37 °C before cell viability testing. A stock suspension of each of the synthesized compounds at 50 mg/mL in distilled water was prepared. After that, fresh suspensions of different concentrations of the synthesized compounds (2-fold serial dilutions from 0.39 to 200 μg/mL) were made using serial dilutions of the stock suspensions of the synthesized compounds in the RPMI 1640 medium immediately before use. Next, 200 μL of suspension (different concentrations of synthesized compounds) was added to each well of the micropentaplicates. The cells were incubated for 24 and 48 h under the same conditions. Wells without any synthesized compounds served as a negative control. The experiments were performed in pentaplicate for each concentration. To assess cell survival, 100 μL of MTT solution (2 mg/mL in PBS) was added to each well and incubated for 3 h at 37 °C to produce insoluble formazan. Next, 100 μL of DMSO was added to dissolve the formazan crystals, and the absorbance was measured using an Infinite M200 ELISA plate reader (Tecan, Männedorf, Switzerland) at 570 nm, with 630 nm as a reference wave length. The percentage of cell viability was calculated via the formula (A test /A control ) ×100, in which A test is the average absorbance of the treated cells and A control is the average absorbance of the negative control.
(§3) Cytotoxicity assessment of the cell lines were performed in pentaplicate, and the results were computed as mean ±SD. The experimental results were analyzed using one-way ANOVA analysis in SPSS 16.0 for Windows (SPSS Inc., Chicago, IL, USA) and P <0.05 was considered significant. The IC 50 values were calculated by nonlinear regression analysis using Finney probit analysis in SPSS.

[2] = tested on: MCF-7 cell line (human breast adenocarcinoma); assay: MTT cytotoxicity assay, MCF-7 cells; type: cell-based; conditions: for IC 50 (μg/mL) MCF-7 / IC50: MTT; for IC50: Homo sapiens, read-out: IC 50 (μg/mL) MCF-7; for effect on cell viability in MCF-7 cells: different concentrations, Figure 6, 24 h
Procedure: as §1, §2, §3

[3] = tested on: AGS cells (gastric adenocarcinoma); assay: MTT cytotoxicity assay, AGS cells; type: cell-based, human; conditions: for IC50: Homo sapiens, AGS cells, MTT
Procedure: as §1
In this research, the effects of synthesized compounds on the viability of MCF-7, AGS, and HEK cells were evaluated at various concentrations (0.39–200 μg/mL) utilizing 3-(4,5-dimethylthiazol-2-yl)-2,5-diphenyltetrazolium bromide (MTT) assay. After thawing, the cells were cultured in RPMI 1640 medium containing 10% FBS, penicillin (100 U/mL), and streptomycin ([…]) at 37 °C in a humidified 5% CO2 incubator. The cells were seeded in a 96-well plate at a density of 5000 cells per well (the cells were stained with trypan blue and counted with a hemocytometer). The cells were incubated overnight at 37 °C before cell viability testing. A stock suspension of each of the synthesized compounds at 50 mg/mL in distilled water was prepared. […] Next, 100 μL of DMSO was added to dissolve the formazan crystals, and the absorbance was measured using an Infinite M200 ELISA plate reader (Tecan, Männedorf, Switzerland) at 570 nm, with 630 nm as a reference wave length. The percentage of cell viability was calculated via the formula (A test /A control ) ×100, in which A test is the average absorbance of the treated cells and A control is the average absorbance of the negative control.
as §3

[4] = HEK293 cells, MTT, Table 7, 24 h per Figure 6
[5] = MCF-7 cells, Table 7, 24 h per Figure 6
[6] = MCF7, 24 h, MCF-7 cells, Table 7, 24 h per Figure 6

| melting point | SMILES | IC 50 (μg/mL) MCF-7 [2, 5] | IC50 [1, 4] | IC50 [2, 6] | cytotoxicity against HEK293 cells compared to the other analogs [1] | effect on cell viability in MCF-7 cells [2] | other results |
| --- | --- | --- | --- | --- | --- | --- | --- |
|  | CCOC(=O)C1=C(C)NC(=O)NC1c1cccs1 (stereo not drawn) [4m] | 128.00 µg/mL (≈ 481 µM) |  |  |  |  | IC 50 (μg/mL) HEK293 [1, 4]: 146.25 µg/mL (≈ 549 µM) |
|  | CCOC(=O)C1=C(C)NC(=O)NC1c1c(Cl)cccc1Cl (stereo not drawn) [4r] |  |  |  |  |  | IC50 ([1]; HEK293): > 200 µg/mL; IC50 ([3]; 24 h, read-out: IC 50 (μg/mL) AGS (24 h)): 30 µg/mL (≈ 91.1 µM); IC50 ([3]; 48 h, read-out: IC 50 (μg/mL) AGS (48 h)): 4.97 µg/mL (≈ 15.1 µM); death of AGS cells ([3]; after treatment for 24 and 48 h, different concentrations (Figure 5)): ≥ 50%; IC50 ([2]; MCF7, MCF-7 cells, Table 6 (DHPMs 4j, 4r)): 0.17 µg/mL (≈ 0.516 µM) |
| 168 to 170 °C | N#Cc1c(-c2cccc(Cl)c2)cc(-c2ccccc2)nc1N [5c, 2-Amino-4-(3-chlorophenyl)-6-phenylnicotinonitrile] |  | > 1000 µg/mL | 307 µg/mL (≈ 1000 µM) |  |  |  |
|  | N#Cc1c(-c2ccccc2F)cc(-c2ccccc2)nc1N [5g] |  | 950 µg/mL (≈ 3280 µM) | 71.9 µg/mL (≈ 249 µM) | less cytotoxic | considerable decrease in cell viability |  |
| 174 to 176 °C | N#Cc1c(-c2c(Cl)cccc2Cl)cc(-c2ccccc2)nc1N [5l, 2-Amino-4-(2,6-dichlorophenyl)-6-phenylnicotinonitrile] |  |  |  |  |  |  |
| 179 to 181 °C | N#Cc1c(-c2ccc(Cl)cc2Cl)cc(-c2ccccc2)nc1N [5m, 2-Amino-4-(2,4-dichlorophenyl)-6-phenylnicotinonitrile] | 82.90 µg/mL (≈ 244 µM) | 259 µg/mL (≈ 760 µM) | 82 µg/mL (≈ 241 µM) | less cytotoxic | considerable decrease in cell viability |  |
